In publication PMC5100899 (Journal of medicinal chemistry, 2016):
Values after ≈ are worked out from the molar mass of the structure shown. Like-named read-outs stand apart in the source and are kept apart here.

Experiments:
[1] = molecular target: Src (Homo sapiens, UniProt P12931); assay: Src tyrosine kinase inhibition; format: biochemical
[2] = tested on: HepG2; assay: HepG2 growth inhibition; format: cell-based; conditions: Homo sapiens, HepG2, read-out: human cells, GI50 HepG2
[3] = tested on: CRL-8155; assay: CRL-8155 growth inhibition; format: cell-based; conditions: Homo sapiens, CRL8155, read-out: human cells, GI50 CRL-8155
[4] = molecular target: hERG (Homo sapiens, UniProt Q12809)
[5] = phosphate-buffered saline, pH 6.5
[6] = physchem; conditions: phosphate-buffered saline, pH 6.5, Solubility
[7] = in vitro; conditions: mouse

Src, sequence (P12931 whole entry, species assumed): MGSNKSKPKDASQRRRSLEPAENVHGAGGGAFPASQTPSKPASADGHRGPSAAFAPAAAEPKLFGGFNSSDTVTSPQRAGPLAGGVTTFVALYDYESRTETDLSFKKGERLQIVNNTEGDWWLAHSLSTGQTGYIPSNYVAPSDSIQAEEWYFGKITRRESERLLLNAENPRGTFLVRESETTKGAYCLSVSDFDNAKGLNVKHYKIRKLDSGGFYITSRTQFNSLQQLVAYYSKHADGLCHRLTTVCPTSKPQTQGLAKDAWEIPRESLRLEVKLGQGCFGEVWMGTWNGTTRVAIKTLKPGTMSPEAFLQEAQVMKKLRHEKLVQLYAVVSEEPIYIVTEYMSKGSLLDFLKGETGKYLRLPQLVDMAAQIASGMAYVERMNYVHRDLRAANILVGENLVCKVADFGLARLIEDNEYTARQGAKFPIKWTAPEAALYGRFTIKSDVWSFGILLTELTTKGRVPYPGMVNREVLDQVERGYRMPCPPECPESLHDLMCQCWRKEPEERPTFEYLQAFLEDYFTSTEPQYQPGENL
hERG, sequence (Q12809 whole entry): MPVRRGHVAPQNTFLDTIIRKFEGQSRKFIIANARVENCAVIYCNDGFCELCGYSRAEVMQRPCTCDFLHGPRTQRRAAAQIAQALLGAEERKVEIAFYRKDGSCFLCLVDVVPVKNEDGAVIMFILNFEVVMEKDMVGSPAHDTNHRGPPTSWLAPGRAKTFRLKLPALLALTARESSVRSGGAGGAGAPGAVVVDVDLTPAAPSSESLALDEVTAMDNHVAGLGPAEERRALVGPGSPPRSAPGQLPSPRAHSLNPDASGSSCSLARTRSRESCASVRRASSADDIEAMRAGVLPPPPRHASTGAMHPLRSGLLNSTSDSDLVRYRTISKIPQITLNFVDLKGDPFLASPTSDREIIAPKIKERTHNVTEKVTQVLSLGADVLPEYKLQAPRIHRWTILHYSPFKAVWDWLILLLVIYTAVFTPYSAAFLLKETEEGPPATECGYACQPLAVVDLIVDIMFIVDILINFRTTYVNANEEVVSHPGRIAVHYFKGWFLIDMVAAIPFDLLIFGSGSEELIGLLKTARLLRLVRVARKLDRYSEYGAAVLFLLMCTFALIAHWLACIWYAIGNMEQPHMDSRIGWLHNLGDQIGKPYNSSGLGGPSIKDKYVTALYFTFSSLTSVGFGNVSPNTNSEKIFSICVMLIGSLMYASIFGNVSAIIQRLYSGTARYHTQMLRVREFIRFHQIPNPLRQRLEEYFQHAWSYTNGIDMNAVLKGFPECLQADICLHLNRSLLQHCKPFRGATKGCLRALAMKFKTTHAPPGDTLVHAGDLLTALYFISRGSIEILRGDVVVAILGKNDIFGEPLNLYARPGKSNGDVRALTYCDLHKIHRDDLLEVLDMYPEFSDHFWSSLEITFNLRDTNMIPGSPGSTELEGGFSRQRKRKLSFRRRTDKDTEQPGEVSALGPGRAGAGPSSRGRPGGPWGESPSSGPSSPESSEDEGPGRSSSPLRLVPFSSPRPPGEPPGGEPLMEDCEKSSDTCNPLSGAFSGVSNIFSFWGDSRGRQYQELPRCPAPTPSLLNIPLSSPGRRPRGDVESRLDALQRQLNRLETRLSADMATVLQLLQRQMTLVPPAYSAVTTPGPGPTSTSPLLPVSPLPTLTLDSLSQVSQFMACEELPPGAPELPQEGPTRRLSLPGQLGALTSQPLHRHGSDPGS

IC50 [1] | GI50 [2] | solubility [5] | solubility [6] | Structure (SMILES) | GI50 [3] | lower activity against hERG than 1 [4] | EC50 [7]
> 10 µM | > 10 µM |  |  | CCOc1ccc2cc(-c3nn(CC4CNC4)c4ncnc(N)c34)ccc2c1 [Compound 5] | > 10 µM |  | 
> 10 µM | > 10 µM |  |  | CCOc1ccc2cc(-c3nn(CC4CN(C)C4)c4ncnc(N)c34)ccc2c1 [Compound 6] | > 10 µM |  | 
> 10 µM | > 10 µM |  |  | CCOc1ccc2cc(-c3nn(CC4CCN(C(C)C)CC4)c4ncnc(N)c34)ccc2c1 [Compound 7] | > 10 µM |  | 
 | > 10 µM |  |  | CCOc1ccc2cc(-c3nn(CC4CCN(C(C)=O)CC4)c4ncnc(N)c34)ccc2c1 [Compound 8] | > 10 µM |  | 
 | > 10 µM |  |  | CCOc1ccc2cc(-c3nn(CC4CN(C(C)=O)C4)c4ncnc(N)c34)ccc2c1 [Compound 9] | > 10 µM |  | 
> 10 µM | > 10 µM |  |  | CN1CCC(Cn2nc(-c3ccc4cc(OCC5CC5)ccc4c3)c3c(N)ncnc32)CC1 [Compound 10, 3-(6-(Cyclopropylmethoxy)naphthalen-2-yl)-1-((1-methylpiperidin-4-yl)methyl)-1H-pyrazolo[3,4-d]pyrimidin-4-amine] | > 10 µM |  | 
> 10 µM |  |  |  | CN1CCC(Cn2nc(-c3ccc4cc(OC5CC5)ccc4c3)c3c(N)ncnc32)CC1 [Compound 12, 3-(6-Cyclopropoxynaphthalen-2-yl)-1-((1-methylpiperidin-4-yl)methyl)-1H-pyrazolo[3,4-d]pyrimidin-4-amine] | > 10 µM |  | 
> 10 µM | > 10 µM |  |  | COCCOc1ccc2cc(-c3nn(CC4CCN(C)CC4)c4ncnc(N)c34)ccc2c1 [Compound 13, 3-(6-(2-Methoxyethoxy)naphthalen-2-yl)-1-((1-methylpiperidin-4-yl)methyl)-1H-pyrazolo[3,4-d]pyrimidin-4-amine] | > 10 µM |  | 
> 10 µM | > 10 µM |  |  | CN1CCC(Cn2nc(-c3ccc4cc(OC5COC5)ccc4c3)c3c(N)ncnc32)CC1 [Compound 14, 1-((1-Methylpiperidin-4-yl)methyl)-3-(6-(oxetan-3-yloxy)naphthalen-2-yl)-1H-pyrazolo[3,4-d]pyrimidin-4-amine] | > 10 µM |  | 
> 10 µM | > 10 µM |  |  | CN1CCC(Cn2nc(-c3ccc4cc(OCC(C)(C)O)ccc4c3)c3c(N)ncnc32)CC1 [Compound 16, 1-(6-(4-Amino-1-((1-methylpiperidin-4-yl)methyl)-1H-pyrazolo[3,4-d]pyrimidin-3-yl)naphthalen-2-yloxy)-2-methylpropan-2-ol] | > 10 µM |  | 
> 10 µM |  |  |  | CCOc1ccc2cc(-c3nn(CC4CCN(C)CC4)c4ncnc(N)c34)ccc2n1 [Compound 17, 3-(2-Ethoxyquinolin-6-yl)-1-((1-methylpiperidin-4-yl)methyl)-1H-pyrazolo[3,4-d]pyrimidin-4-amine] |  | 25 fold | 
> 10 µM | > 10 µM |  |  | CN1CCC(Cn2nc(-c3ccc4nc(OC5CC5)ccc4c3)c3c(N)ncnc32)CC1 [Compound 19, 3-(2-Cyclopropoxyquinolin-6-yl)-1-((1-methylpiperidin-4-yl)methyl)-1H-pyrazolo[3,4-d]pyrimidin-4-amine] |  |  | 
> 10 µM | > 10 µM |  |  | CN(C)CC(C)(C)Cn1nc(-c2ccc3nc(OC4CC4)ccc3c2)c2c(N)ncnc21 [Compound 20, 3-(2-Cyclopropoxyquinolin-6-yl)-1-(3-(dimethylamino)-2,2-dimethylpropyl)-1H-pyrazolo[3,4-d]pyrimidin-4-amine] | > 10 µM |  | 
> 10 µM | > 10 µM |  |  | CCOc1ccc2cc(-c3nn(CC(C)C)c4ncnc(N)c34)ccc2c1 [Compound 21, 3-(6-Ethoxynaphthalen-2-yl)-1-isobutyl-1H-pyrazolo[3,4-d]pyrimidin-4-amine] | > 10 µM |  | 
 |  |  |  | CC(C)Cn1nc(-c2ccc3cc(OC4CC4)ccc3c2)c2c(N)ncnc21 [Compound 22, 3-(6-Cyclopropoxynaphthalen-2-yl)-1-isobutyl-1H-pyrazolo[3,4-d]pyrimidin-4-amine] | > 10 µM |  | 
> 10 µM | > 10 µM |  |  | CC(C)Cn1nc(-c2ccc3nc(OC4CC4)ccc3c2)c2c(N)ncnc21 [Compound 23, 3-(2-Cyclopropoxyquinolin-6-yl)-1-isobutyl-1H-pyrazolo[3,4-d]pyrimidin-4-amine] | > 10 µM |  | 
> 10 µM | > 10 µM |  |  | CC1(Cn2nc(-c3ccc4cc(OC5CC5)ccc4c3)c3c(N)ncnc32)COC1 [Compound 24, 3-(6-Cyclopropoxynaphthalen-2-yl)-1-((3-methyloxetan-3-yl)methyl)-1H-pyrazolo[3,4-d]pyrimidin-4-amine] | > 10 µM |  | 
> 10 µM | > 10 µM |  |  | CC1(Cn2nc(-c3ccc4nc(OC5CC5)ccc4c3)c3c(N)ncnc32)COC1 [Compound 25, 3-(2-Cyclopropoxyquinolin-6-yl)-1-((3-methyloxetan-3-yl)methyl)-1H-pyrazolo[3,4-d]pyrimidin-4-amine] | > 10 µM |  | 
> 10 µM | > 10 µM |  |  | CCOc1ccc2cc(-c3nn(CC4CCOCC4)c4ncnc(N)c34)ccc2c1 [Compound 26] | > 10 µM |  | 
> 10 µM | > 10 µM |  |  | CCOc1ccc2cc(-c3nn(CC4CCOCC4)c4ncnc(N)c34)ccc2n1 [Compound 27] | > 10 µM |  | 
 | > 10 µM |  |  | Nc1ncnc2c1c(-c1ccc3cc(OC4CC4)ccc3c1)nn2CC1CCOCC1 [Compound 28, 3-(6-Cyclopropoxynaphthalen-2-yl)-1-((tetrahydro-2H-pyran-4-yl)methyl)-1H-pyrazolo[3,4-d]pyrimidin-4-amine] | > 10 µM |  | 
> 10 µM | > 10 µM | 17 µM (≈ 7.08 µg/mL) | < 20 µM | Nc1ncnc2c1c(-c1ccc3nc(OC4CC4)ccc3c1)nn2CC1CCOCC1 [Compound 29, 3-(2-Cyclopropoxyquinolin-6-yl)-1-((tetrahydro-2H-pyran-4-yl)methyl)-1H-pyrazolo[3,4-d]pyrimidin-4-amine] | > 10 µM |  | 
> 10 µM | > 10 µM |  |  | CCOc1ccc2cc(-c3nn(CC(C)(C)O)c4ncnc(N)c34)ccc2c1 [Compound 30, 1-(4-Amino-3-(6-ethoxynaphthalen-2-yl)-1H-pyrazolo[3,4-d]pyrimidin-1-yl)-2-methylpropan-2-ol] | > 10 µM |  | 
> 10 µM | > 10 µM |  |  | CCOc1ccc2cc(-c3nn(CC(C)(C)O)c4ncnc(N)c34)ccc2n1 [Compound 31, 1-(4-Amino-3-(2-ethoxyquinolin-6-yl)-1H-pyrazolo[3,4-d]pyrimidin-1-yl)-2-methylpropan-2-ol] | > 10 µM |  | 
> 10 µM |  |  |  | CC(C)(CO)Cn1nc(-c2ccc3nc(OCC(F)(F)F)ccc3c2)c2c(N)ncnc21 [Compound 36, 3-(4-Amino-3-(2-(2,2,2-trifluoroethoxy)quinolin-6-yl)-1H-pyrazolo[3,4-d]pyrimidin-1-yl)-2,2-dimethylpropan-1-ol] |  |  | 
> 10 µM | > 10 µM |  |  | Nc1ncnc2c1c(-c1ccc3cc(OC4CC4)ccc3c1)nn2CC(O)(C(F)(F)F)C(F)(F)F [Compound 37, 2-((4-Amino-3-(6-cyclopropoxynaphthalen-2-yl)-1H-pyrazolo[3,4-d]pyrimidin-1-yl)methyl)-1,1,1,3,3,3-hexafluoropropan-2-ol] | > 10 µM |  | 

Structure (SMILES) | IC50 [1] | GI50 [2] | solubility [5] | solubility [6] | GI50 [3] | lower activity against hERG than 1 [4] | EC50 [7]
CN1CCC(Cn2nc(-c3ccc4cc(OC5CCC5)ccc4c3)c3c(N)ncnc32)CC1 [Compound 11, 3-(6-Cyclobutoxynaphthalen-2-yl)-1-((1-methylpiperidin-4-yl)methyl)-1H-pyrazolo[3,4-d]pyrimidin-4-amine] | > 10 µM | > 10 µM |  |  | > 10 µM |  | 
CC(C)(O)Cn1nc(-c2ccc3nc(OC4CC4)ccc3c2)c2c(N)ncnc21 [Compound 33, 1-(4-Amino-3-(2-cyclopropoxyquinolin-6-yl)-1H-pyrazolo[3,4-d]pyrimidin-1-yl)-2-methylpropan-2-ol] |  | > 10 µM |  |  | > 10 µM |  | 1.33 µM
